Calls of active or inactive are those of the source. No cut-off for these calls is given here.
Key:
[1] = biological target: Interleukin-1 receptor-associated kinase 4 (Homo sapiens) (UniProt Q9NWZ3); assay: Inhibition of IRAK4 assessed as residual activity at 10 uM by radioactivity assay in presence of 20 uM ATP
[2] = biological target: Inhibitor of nuclear factor kappa-B kinase subunit beta (Homo sapiens) (UniProt O14920); assay: Inhibition of IKK-beta assessed as residual activity at 10 uM by radioactivity assay in presence of 5 uM ATP
[3] = system: OVCAR-8; assay: Cytotoxicity against human OVCAR8 cells; assay type: functional
[4] = biological target: Phosphorylase b kinase gamma catalytic chain, skeletal muscle/heart isoform (Homo sapiens) (UniProt Q16816); assay: Inhibition of PHKG1 assessed as residual activity at 10 uM by radioactivity assay in presence of 50 uM ATP
[5] = Antiangiogenic activity in VEGF-stimulated HMEC1 assessed as reduction in total length of tube at 20 uM after 16 hrs by photographic analysis; assay type: functional, Homo sapiens, HMEC-1; design: scale not given: the % may be the effect or the level left
[6] = system: SF-295; assay: Cytotoxicity against human SF295 cells; assay type: functional
[7] = Inhibition of AMPK assessed as residual activity at 10 uM by radioactivity assay in presence of 50 uM ATP
[8] = Inhibition of PKA assessed as residual activity at 10 uM by radioactivity assay in presence of 20 uM ATP
[9] = Antiproliferative activity against HMEC1 cells assessed as decrease in cell viability at >50 uM within 72 hrs by calcein AM staining-based fluorescence assay; details: human, hmec-1, 72 h
[10] = biological target: Tyrosine-protein kinase Yes (Homo sapiens) (UniProt P07947); assay: Inhibition of YES1 assessed as residual activity at 10 uM by radioactivity assay in presence of 20 uM ATP
[11] = biological target: Myosin light chain kinase, smooth muscle (Homo sapiens) (UniProt Q15746); assay: Inhibition of SmMLCK assessed as residual activity at 10 uM by radioactivity assay in presence of 50 uM ATP
[12] = system: HL-60(TB); assay: Cytotoxicity against human HL-60(TB) cells; assay type: functional
[13] = system: SF-268; assay: Cytotoxicity against human SF268 cells; assay type: functional
[14] = biological target: Proto-oncogene tyrosine-protein kinase Src (Homo sapiens) (UniProt P12931); assay: Inhibition of Src assessed as residual activity at 10 uM by radioactivity assay in presence of 50 uM ATP
[15] = system: OVCAR-4; assay: Cytotoxicity against human OVCAR4 cells; assay type: functional
[16] = biological target: Mitogen-activated protein kinase 14 (Homo sapiens) (UniProt Q16539); assay: Inhibition of p38alpha MAPK assessed as residual activity at 10 uM by radioactivity assay in presence of 50 uM ATP
[17] = system: MDA-MB-231; assay: Decrease in VEGF expression in human MDA-MB-231 cells at >10 uM after 24 hrs by sandwich ELISA; assay type: functional, cell-based
[18] = biological target: Rho-associated protein kinase 2 (Homo sapiens) (UniProt O75116); assay: Inhibition of ROCK2 assessed as residual activity at 10 uM by radioactivity assay in presence of 20 uM ATP
[19] = biological target: MAP kinase-interacting serine/threonine-protein kinase 1 (Homo sapiens) (UniProt Q9BUB5); assay: Inhibition of MNK1 assessed as residual activity at 10 uM by radioactivity assay in presence of 50 uM ATP
[20] = system: NCI-H226; assay: Cytotoxicity against human NCI-H226 cells; assay type: functional
[21] = system: NCI-H322M; assay: Cytotoxicity against human NCI-H322M cells; assay type: functional
[22] = biological target: Mitogen-activated protein kinase 13 (Homo sapiens) (UniProt O15264); assay: Inhibition of p38delta MAPK assessed as residual activity at 10 uM by radioactivity assay in presence of 5 uM ATP
[23] = system: NCI-H460; assay: Cytotoxicity against human NCI-H460 cells; assay type: functional
[24] = biological target: Serine/threonine-protein kinase D1 (Homo sapiens) (UniProt Q15139); assay: Inhibition of PKD1 assessed as residual activity at 10 uM by radioactivity assay in presence of 50 uM ATP
[25] = system: CAKI-1; assay: Cytotoxicity against human Caki1 cells; assay type: functional
[26] = biological target: Serine/threonine-protein kinase pim-1 (Homo sapiens) (UniProt P11309); assay: Inhibition of PIM1 assessed as residual activity at 10 uM by radioactivity assay in presence of 20 uM ATP
[27] = biological target: MAP kinase-interacting serine/threonine-protein kinase 2 (Homo sapiens) (UniProt Q9HBH9); assay: Inhibition of MNK2alpha assessed as residual activity at 10 uM by radioactivity assay in presence of 50 uM ATP
[28] = biological target: Serine/threonine-protein kinase MARK1 (Homo sapiens) (UniProt Q9P0L2); assay: Inhibition of MARK1 assessed as residual activity at 10 uM by radioactivity assay in presence of 20 uM ATP
[29] = biological target: Serine/threonine-protein kinase PAK 6 (Homo sapiens) (UniProt Q9NQU5); assay: Inhibition of PAK6 assessed as residual activity at 10 uM by radioactivity assay in presence of 20 uM ATP
[30] = system: SK-MEL-28; assay: Cytotoxicity against human SK-MEL-28 cells; assay type: functional
[31] = biological target: Dual specificity mitogen-activated protein kinase kinase 1 (Homo sapiens) (UniProt Q02750); assay: Inhibition of MKK1 assessed as residual activity at 10 uM by radioactivity assay in presence of 5 uM ATP
[32] = biological target: Insulin receptor (Homo sapiens) (UniProt P06213); assay: Inhibition of IR assessed as residual activity at 10 uM by radioactivity assay in presence of 20 uM ATP
[33] = biological target: SRSF protein kinase 1 (Homo sapiens) (UniProt Q96SB4); assay: Inhibition of SRPK1 assessed as residual activity at 10 uM by radioactivity assay in presence of 50 uM ATP
[34] = Inhibition of VEGFR assessed as residual activity at 10 uM by radioactivity assay in presence of 20 uM ATP
[35] = system: NCI-H522; assay: Cytotoxicity against human NCI-H522 cells; assay type: functional
[36] = biological target: Serine/threonine-protein kinase PLK1 (Homo sapiens) (UniProt P53350); assay: Inhibition of PLK1 assessed as residual activity at 10 uM by radioactivity assay in presence of 5 uM ATP
[37] = biological target: Misshapen-like kinase 1 (Homo sapiens) (UniProt Q8N4C8); assay: Inhibition of MINK1 assessed as residual activity at 10 uM by radioactivity assay in presence of 50 uM ATP
[38] = Inhibition of TNF-alpha-induced Nuclear factor-kappa-B-mediated ICAM-1 expression in human HMEC1 cells after 24 hrs by FACS analysis; assay type: cell-based; details: HMEC-1, 24 h
[39] = biological target: Mitogen-activated protein kinase kinase kinase 11 (Homo sapiens) (UniProt Q16584); assay: Inhibition of MLK3 assessed as residual activity at 10 uM by radioactivity assay in presence of 20 uM ATP
[40] = biological target: Mitogen-activated protein kinase kinase kinase kinase 2 (Homo sapiens) (UniProt Q12851); assay: Inhibition of GCK assessed as residual activity at 10 uM by radioactivity assay in presence of 20 uM ATP

Misshapen-like kinase 1 (Homo sapiens), sequence (Q8N4C8 whole entry, looked up): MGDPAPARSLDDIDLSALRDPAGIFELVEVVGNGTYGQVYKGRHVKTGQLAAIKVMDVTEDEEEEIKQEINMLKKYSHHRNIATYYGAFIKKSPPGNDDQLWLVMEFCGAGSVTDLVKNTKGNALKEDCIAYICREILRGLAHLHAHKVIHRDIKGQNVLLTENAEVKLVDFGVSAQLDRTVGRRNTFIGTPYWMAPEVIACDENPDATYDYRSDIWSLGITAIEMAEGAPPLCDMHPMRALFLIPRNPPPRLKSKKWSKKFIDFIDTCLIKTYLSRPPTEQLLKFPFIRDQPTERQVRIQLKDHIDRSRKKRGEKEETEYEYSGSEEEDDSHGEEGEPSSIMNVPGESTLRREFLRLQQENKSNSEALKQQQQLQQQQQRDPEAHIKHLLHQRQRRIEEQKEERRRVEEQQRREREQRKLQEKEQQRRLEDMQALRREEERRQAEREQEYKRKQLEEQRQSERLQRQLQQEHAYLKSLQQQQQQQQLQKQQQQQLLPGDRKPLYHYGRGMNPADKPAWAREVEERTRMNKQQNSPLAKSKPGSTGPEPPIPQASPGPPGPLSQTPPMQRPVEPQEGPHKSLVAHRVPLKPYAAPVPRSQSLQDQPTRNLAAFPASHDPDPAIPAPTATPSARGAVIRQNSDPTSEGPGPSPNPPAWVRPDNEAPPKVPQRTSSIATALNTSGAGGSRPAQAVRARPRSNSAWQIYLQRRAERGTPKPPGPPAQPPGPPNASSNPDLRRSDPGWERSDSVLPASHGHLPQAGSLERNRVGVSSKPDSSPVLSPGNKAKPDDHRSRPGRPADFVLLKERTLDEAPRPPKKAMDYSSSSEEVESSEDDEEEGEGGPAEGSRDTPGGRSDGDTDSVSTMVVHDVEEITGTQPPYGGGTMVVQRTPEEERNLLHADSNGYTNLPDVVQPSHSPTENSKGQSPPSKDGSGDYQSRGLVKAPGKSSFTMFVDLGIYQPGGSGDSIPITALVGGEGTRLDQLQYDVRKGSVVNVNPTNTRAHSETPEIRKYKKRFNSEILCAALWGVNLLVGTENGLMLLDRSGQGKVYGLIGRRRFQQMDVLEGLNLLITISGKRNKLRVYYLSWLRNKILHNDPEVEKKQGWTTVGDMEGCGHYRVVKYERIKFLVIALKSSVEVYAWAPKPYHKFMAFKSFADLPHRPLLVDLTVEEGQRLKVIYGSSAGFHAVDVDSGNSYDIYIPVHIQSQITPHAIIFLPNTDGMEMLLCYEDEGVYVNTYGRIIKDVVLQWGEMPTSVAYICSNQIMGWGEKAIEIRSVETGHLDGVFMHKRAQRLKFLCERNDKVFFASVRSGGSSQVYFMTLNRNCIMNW
Serine/threonine-protein kinase pim-1 (Homo sapiens), sequence (P11309 whole entry, looked up): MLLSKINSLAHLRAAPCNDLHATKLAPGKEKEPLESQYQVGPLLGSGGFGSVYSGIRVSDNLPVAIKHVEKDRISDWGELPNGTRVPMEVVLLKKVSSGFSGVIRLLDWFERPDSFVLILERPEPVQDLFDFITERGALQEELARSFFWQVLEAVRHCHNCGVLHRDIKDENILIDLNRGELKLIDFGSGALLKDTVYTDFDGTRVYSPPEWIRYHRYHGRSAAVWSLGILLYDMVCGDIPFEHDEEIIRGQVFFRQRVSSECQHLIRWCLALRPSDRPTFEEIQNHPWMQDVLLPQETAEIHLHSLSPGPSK
Serine/threonine-protein kinase D1 (Homo sapiens), sequence (Q15139 whole entry): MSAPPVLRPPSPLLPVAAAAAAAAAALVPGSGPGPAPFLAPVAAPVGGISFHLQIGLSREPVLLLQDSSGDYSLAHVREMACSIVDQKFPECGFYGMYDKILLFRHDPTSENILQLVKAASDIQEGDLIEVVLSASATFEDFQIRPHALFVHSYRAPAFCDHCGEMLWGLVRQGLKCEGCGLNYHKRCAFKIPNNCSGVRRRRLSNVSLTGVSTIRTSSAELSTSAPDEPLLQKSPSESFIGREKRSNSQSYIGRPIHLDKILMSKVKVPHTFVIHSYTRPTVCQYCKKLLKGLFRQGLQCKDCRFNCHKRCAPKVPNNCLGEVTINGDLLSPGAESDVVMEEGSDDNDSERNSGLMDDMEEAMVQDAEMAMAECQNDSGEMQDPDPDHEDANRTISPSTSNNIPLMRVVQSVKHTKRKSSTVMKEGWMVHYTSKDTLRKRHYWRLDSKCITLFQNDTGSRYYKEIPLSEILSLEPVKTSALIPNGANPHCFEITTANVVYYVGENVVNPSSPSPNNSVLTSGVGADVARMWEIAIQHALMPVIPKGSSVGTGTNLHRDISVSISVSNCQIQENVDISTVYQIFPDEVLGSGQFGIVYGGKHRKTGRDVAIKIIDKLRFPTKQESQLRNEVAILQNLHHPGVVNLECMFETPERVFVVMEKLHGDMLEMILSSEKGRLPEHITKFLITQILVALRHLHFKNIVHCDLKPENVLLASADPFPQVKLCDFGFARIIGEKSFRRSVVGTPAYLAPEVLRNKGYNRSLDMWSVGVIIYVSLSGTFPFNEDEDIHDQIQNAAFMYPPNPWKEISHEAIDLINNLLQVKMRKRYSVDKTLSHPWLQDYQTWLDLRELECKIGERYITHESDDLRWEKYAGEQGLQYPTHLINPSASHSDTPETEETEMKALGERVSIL
Mitogen-activated protein kinase 14 (Homo sapiens), sequence (Q16539 whole entry): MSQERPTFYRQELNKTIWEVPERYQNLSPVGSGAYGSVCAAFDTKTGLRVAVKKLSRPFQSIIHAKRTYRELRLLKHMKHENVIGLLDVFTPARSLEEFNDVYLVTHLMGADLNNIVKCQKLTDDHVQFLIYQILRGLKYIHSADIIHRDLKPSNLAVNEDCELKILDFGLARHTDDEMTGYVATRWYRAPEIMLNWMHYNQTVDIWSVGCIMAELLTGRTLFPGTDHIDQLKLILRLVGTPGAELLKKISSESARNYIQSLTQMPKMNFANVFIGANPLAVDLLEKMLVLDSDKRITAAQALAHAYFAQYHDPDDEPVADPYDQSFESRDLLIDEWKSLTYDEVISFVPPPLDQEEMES
Rho-associated protein kinase 2 (Homo sapiens), sequence (O75116 whole entry, looked up): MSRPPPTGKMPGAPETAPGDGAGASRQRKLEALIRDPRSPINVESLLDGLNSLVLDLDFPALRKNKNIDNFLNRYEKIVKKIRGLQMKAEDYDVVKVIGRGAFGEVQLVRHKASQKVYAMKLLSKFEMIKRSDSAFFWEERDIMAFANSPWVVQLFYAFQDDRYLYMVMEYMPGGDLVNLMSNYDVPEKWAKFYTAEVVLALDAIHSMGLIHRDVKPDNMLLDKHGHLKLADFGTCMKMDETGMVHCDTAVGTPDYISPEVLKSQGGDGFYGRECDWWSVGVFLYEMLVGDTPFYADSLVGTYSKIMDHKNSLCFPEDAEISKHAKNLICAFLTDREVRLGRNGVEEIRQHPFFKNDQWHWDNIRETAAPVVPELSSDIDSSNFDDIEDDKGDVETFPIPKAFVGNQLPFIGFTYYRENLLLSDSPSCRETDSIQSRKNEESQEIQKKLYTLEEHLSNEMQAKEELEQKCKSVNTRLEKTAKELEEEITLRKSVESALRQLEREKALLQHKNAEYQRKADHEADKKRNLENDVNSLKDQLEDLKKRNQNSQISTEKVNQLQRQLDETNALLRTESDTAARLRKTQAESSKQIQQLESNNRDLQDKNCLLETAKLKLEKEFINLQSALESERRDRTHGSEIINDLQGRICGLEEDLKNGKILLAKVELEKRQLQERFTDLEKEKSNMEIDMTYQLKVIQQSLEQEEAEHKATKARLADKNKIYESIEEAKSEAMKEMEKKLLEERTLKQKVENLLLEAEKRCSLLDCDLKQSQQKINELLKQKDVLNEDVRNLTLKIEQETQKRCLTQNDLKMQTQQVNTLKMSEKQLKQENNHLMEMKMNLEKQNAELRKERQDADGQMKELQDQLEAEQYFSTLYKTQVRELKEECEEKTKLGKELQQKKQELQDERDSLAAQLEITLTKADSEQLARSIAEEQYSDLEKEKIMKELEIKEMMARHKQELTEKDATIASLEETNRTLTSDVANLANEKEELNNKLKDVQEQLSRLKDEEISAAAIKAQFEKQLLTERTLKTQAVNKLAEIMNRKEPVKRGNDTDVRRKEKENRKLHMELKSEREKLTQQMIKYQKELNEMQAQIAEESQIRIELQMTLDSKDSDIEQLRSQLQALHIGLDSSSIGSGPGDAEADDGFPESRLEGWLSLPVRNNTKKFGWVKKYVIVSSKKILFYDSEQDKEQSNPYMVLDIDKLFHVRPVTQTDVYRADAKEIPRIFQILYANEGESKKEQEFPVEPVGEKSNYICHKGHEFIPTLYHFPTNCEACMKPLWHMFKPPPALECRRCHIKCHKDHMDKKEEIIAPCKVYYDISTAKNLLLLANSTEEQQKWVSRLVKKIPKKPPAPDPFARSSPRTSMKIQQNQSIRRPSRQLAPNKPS
Serine/threonine-protein kinase PLK1 (Homo sapiens), sequence (P53350 whole entry): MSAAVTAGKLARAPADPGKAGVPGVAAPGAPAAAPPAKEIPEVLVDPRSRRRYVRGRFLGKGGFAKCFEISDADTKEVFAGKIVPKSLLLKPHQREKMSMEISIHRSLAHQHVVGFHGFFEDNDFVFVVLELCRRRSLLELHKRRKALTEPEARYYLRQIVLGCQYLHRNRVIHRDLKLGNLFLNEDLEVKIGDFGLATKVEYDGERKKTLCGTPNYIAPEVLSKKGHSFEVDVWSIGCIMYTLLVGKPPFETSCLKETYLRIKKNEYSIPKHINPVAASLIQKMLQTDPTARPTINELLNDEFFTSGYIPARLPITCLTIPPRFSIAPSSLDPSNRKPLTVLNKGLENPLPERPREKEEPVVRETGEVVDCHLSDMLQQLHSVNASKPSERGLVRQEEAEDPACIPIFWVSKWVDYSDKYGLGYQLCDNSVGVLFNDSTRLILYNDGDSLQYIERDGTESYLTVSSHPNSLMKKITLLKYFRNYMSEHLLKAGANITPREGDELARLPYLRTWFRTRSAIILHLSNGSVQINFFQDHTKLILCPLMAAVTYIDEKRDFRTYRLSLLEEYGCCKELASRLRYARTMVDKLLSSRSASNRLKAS

Nc1n[nH]c(N)c1/N=N/c1ccc(O)cc1
Activity [1]: 58% | Activity [2]: 31% | GI50 [3]: 18 µM | Activity [4]: 29% | Activity [5]: 20% | GI50 [6]: 23.3 µM | Activity [7]: 82% | Activity [8]: 63% | Activity [9]: Non-toxic | Activity [10]: 79% | Activity [11]: 54% | GI50 [12]: 6.4 µM | GI50 [13]: 20.6 µM | Activity [14]: 62% | GI50 [15]: 19 µM | Activity [16]: 101% | Activity [17]: Active | Activity [18]: 51% | Activity [19]: 37% | GI50 [20]: 17.7 µM | GI50 [21]: 25.1 µM | Activity [22]: 77% | GI50 [23]: 25.1 µM | Activity [24]: 67% | GI50 [25]: 14.8 µM | Activity [26]: 40% | Activity [27]: 39% | Activity [28]: 72% | Activity [29]: 97% | GI50 [30]: 22.1 µM | Activity [31]: 60% | Activity [32]: 78% | Activity [33]: 85% | Activity [34]: 42% | GI50 [35]: 24.3 µM | Activity [36]: 77% | Activity [37]: 29% | IC50 [38]: 20 µM | Activity [39]: 31% | Activity [40]: 20%
